Laboratory results as given in US11033538B2, “Dosing regimens for the treatment of lysosomal storage diseases using pharmacological chaperones” (Amicus Therapeutics, Inc., priority 2007, dated 2021).
Positions count from the first letter of the chain named. Where two headings read alike, the source gives them in different places.

Columns and labels:
[1] = Example 10, pharmacokinetic/tissue distribution of isofagomine in rats; format: in vivo
Experimental: A single dose of 600 mg/kg of isofagomine was administered to rats via PO gavage. The concentration of isofagomine (μM) in plasma, liver, spleen and brain tissue was ascertained at regular time intervals at dosing (t=0) through 48 hours after dosing.

GCase [2] = assay: IFG in a mouse model of GD; format: in vivo
Text: (§1) In the lysosome, when the pharmacological chaperone dissociates from the enzyme, the enzyme can perform its normal function, which is to catalyze the breakdown of glucosylceramide (GlcCer), the GCase substrate.

monkeys [3] = assay: Nonclinical toxicology studies of IFG, monkeys; format: in vivo
Text: as §1

GCase [4] = molecular target: T1, GCase (Homo sapiens, UniProt P04062); assay: WBC GCase levels in healthy subjects receiving IFG (Phase 1 multiple-dose study); format: in vivo
T1 construct: endogenous in cells; host or cells: white blood cells of healthy subjects; healthy human skin fibroblasts
T1 sequence (P04062 40-536): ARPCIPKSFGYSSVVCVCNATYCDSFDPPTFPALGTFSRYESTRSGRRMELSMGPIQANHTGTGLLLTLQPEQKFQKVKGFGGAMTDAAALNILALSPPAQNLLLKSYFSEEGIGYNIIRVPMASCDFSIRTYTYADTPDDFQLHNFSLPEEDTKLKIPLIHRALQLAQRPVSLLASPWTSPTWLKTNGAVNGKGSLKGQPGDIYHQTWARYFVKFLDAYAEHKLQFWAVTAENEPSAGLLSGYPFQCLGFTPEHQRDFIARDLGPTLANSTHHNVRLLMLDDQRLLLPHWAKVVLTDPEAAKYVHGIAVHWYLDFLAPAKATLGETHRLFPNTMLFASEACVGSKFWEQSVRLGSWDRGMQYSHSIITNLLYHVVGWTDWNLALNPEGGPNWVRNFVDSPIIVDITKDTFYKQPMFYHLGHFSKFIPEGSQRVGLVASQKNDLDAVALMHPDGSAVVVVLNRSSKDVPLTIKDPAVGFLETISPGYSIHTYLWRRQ
Experimental: (§2) Blood samples were collected for pharmacokinetic analysis before the initial drug administration on Day 1, before the 5th, 6th and 7th doses (on Days 5, 6 and 7) (for Cmin determination), and at the following times after the 1st (Day 1) and 7th (Day 7) doses: 0.5, 1, 1.5, 2, 3, 4, 5, 6, 8, 10, 12, 15, 18, and 24 hours. […] In addition, blood samples were collected for pharmacodynamic measurements, i.e., analysis of WBC GCase levels, before dosing on Day 1, Day 3, Day 5, and Day 7, and at return visits on Day 9, Day 14 and Day 21.

GCase [5] = assay: GCase levels and trafficking in vitro with IFG (fibroblasts of GD patients); format: cell-based, human
Text: as §1

[6] = Phase 1 multiple-dose study of IFG in healthy subjects, plasma pharmacokinetics; format: in vivo, human; conditions: for Cmax / half-life / Tmax: human, plasma
Experimental: as §2

rats [7] = assay: Nonclinical toxicology studies of IFG, rats; format: in vivo
Text: as §1

GCase [8] = assay: GCase activity in Gaucher patient-derived fibroblasts, lymphoblasts and macrophages after IFG for 5 days; format: cell-based, human; conditions: lymphoblast and macrophages
Text: FIGS. 4A, 4B, and 4C. […] FIG. 4A depicts GCase activity in fibroblasts; FIG. 4B depicts GCase activity in lymphoblasts; and FIG. 4C depicts GCase activity in macrophages.

N370S GCase = molecular target: T2, N370S GCase (Homo sapiens, UniProt P04062, N409S); assay: Expected N370S GCase accumulation parameters estimated from wild-type PK/PD
T2 sequence (P04062 40-536 N409S): T1 sequence (P04062 40-536) with N370S
Text: For example, the most prevalent mutation in Gaucher disease is N370S. […] Accordingly, the rate of N370S turnover and the dose that will yield the maximum rate of GCase accumulation, can be estimated based on the differences in PK and PD parameters as compared with the wild-type enzyme: […]

rats [9] = conditions: rat, in vivo
[10] = Clinical safety and tolerability of 1-Deoxynorjirimycin, single and repeat doses; format: in vivo, human
in vivo = conditions: plasma
[11] = Pharmacokinetics of 1-Deoxynorjirimycin; conditions: is believed
monkeys [12] = conditions: monkey, in vivo

## OC[C@H]1CNC[C@@H](O)[C@@H]1O [IFG, (2R,3R,4R)-5-(hydroxymethyl)-piperidine-3,4-diol]
[1]; liver and plasma, single 600 mg/kg PO
  time after which levels fall below the GCASE Ki value: 48 h
[1]; single 600 mg/kg PO gavage, plasma, liver, spleen, brain
  time for all tissues to attain levels exceeding the GCase enhancement EC50: ≤ 15 min
[1]; spleen and brain tissue
  clearance from tissue: slower clearance
GCase [2]
  plasma levels of chitinase and IgG: reduces plasma levels of chitinase and immunoglobulin G (IgG)
  tissue GCase activity: increases tissue GCase activity
Monkeys [3]
  safety and tolerability of repeated dosing: generally safe and well tolerated
GCase [4]; Wild-type
  Daily dose that yields max rate of accumulation during Initial Enzyme Build-Up phase: ≤75 mg
  Max. rate of enzyme loss: ~−3.5 Units/day
GCase [4]; Wild-type, 1 unit = 1 nmole of 4-MU liberated per mg of total protein per hour
  Max. rate of enzyme accumulation: ~7 Units/day
GCase [4]; healthy subjects
  lowest daily dose that achieved the maximum rate of GCase accumulation over 7 days: about 75 mg
GCase [4]; healthy subjects, 7-day treatment
  maximum increase in GCase enzyme level in white blood cells: approximately 3.5 fold above baseline
GCase [5]; fibroblasts of GD patients
  GCase trafficking to the lysosome: increases GCase trafficking to the lysosome in fibroblasts of GD patients
GCase [5]; in vitro
  GCase total cellular enzyme levels: increases GCase total cellular enzyme levels in vitro
[6]; after 7 days of oral administration, 25, 75 or 225 mg daily
  pharmacokinetic behavior: linear with dose
[6]; oral, 25 mg
  Cmax: 310 nM
[6]; oral, 150 mg
  Cmax: 1700 nM
[6]; oral, healthy subjects, multiple-dose study, SEM: 2 hr., read-out: plasma elimination half-life (converted)
  half-life: ~14 h
[6]; oral, read-out: Half-life (converted)
  half-life: 14 h
[6]; oral, read-out: Tmax
  Tmax: 3 h
[6]; healthy subjects, multiple-dose study, 7 days oral, SEM: 0.6 hr., read-out: Mean plasma levels (Tmax) peaked
  Tmax: ~3.4 h
Rats [7]
  safety and tolerability of repeated dosing: generally safe and well tolerated
GCase [8]
  IFG concentration range at which maximum chaperoning (Emax) occurs: 10 to 100 µM
N370S GCase
  Daily dose that yields max rate of accumulation during Initial Enzyme Build-Up phase: ≤150 to 300 mg
  Max. rate of enzyme accumulation: ~0.35 Units/day
  Max. rate of enzyme loss: ~−0.17 Units/day

## OC[C@H]1NC[C@H](O)[C@@H](O)[C@@H]1O [1-Deoxynorjirimycin, (2R,3R,4R,5S)-2-(hydroxymethyl) piperidine-3,4,5-triol]
Rats [9]
  tolerability in short-term safety studies: well tolerated
[10]; for 2 weeks
  repeat doses (safe and well tolerated): up to 2 grams per day
[10]; patients receiving drug
  severity of adverse events: mild or moderate in severity
[10]; single doses
  single doses appearing safe and well tolerated: up to 600 mg
In vivo
  half-life: 4 to 8 h
[11]
  oral bioavailability: high oral bioavailability
Monkeys [12]
  tolerability in short-term safety studies: well tolerated
